Measurements published in patent publication US20070149446A1, “Tamandarin analogs and fragments thereof and methods of making and using” (The Trustees of the University of Pennsylvania Center for …, priority 2003, published 2007).
Starred links: 1 amine or outer side, 2 acyl side, 3 side chain; linkers in the order of their positions; H or OH if unused. Positions of bridges follow the written chain, without caps; N, C: chain ends. Non-standard residues stand in square brackets, D forms with d. Residues, ends and D or L forms follow the SMILES beside them. Hexanoyl(3S-OH,4R-NH2,5-Me) = CC(C)[C@@H](N[*:1])[C@@H](O)CC(=O)[*:2]; NMe2Nal = CN[C@@H](Cc1ccc2ccccc2c1)C(=O)O; dNMeL = CN[C@H](CC(C)C)C(=O)O; Hiv = CC(C)[C@H](O)C(=O)O; Lac = C[C@H](O)C(=O)O

Assays:
SK-BR3 = assay: SRB colorimetric cell growth inhibition assay, SK-BR3
Protocol: (§1) This form of assay employs 96 well cell culture microplates of […] diameter (Faircloth, 1988; Mosmann, 1983). Most of the cell lines are obtained from American Type Culture Collection (ATCC) derived from different human cancer types.
(§2) Cells are maintained in RPMI 1640 10% FBS, supplemented with 0.1 g/l penicillin and 0.1 g/l streptomycin sulfate and then incubated at 37° C., 5% CO2 and 98% humidity. For the experiments, cells were harvested from subconfluent cultures using trypsin and resuspended in fresh medium before plating.
(§3) Cells are seeded in 96 well microtiter plates, at 5×10^3 cells per well in aliquots of 195 μl medium, and they are allowed to attach to the plate surface by growing in drug free medium for 18 hours. Afterward, samples are added in aliquots of 5 μl in a ranging from 10 to 10-8 μg/ml, dissolved in DMSO/EtOH/PBS (0.5:0.5:99). After 48 hours exposure, the antitumor effect are measured by the SRB methodology: cells are fixed by adding 50 μl of cold 50% (wt/vol) trichloroacetic acid (TCA) and incubated for 60 minutes at 4° C.
(§4) Plates are washed with deionised water and dried. One hundred μl of SRB solution (0.4% wt/vol in 1% acetic acid) is added to each microtiter well and incubated for 10 minutes at room temperature. Unbound SRB is removed by washing with 1% acetic acid. Plates are air dried and bound stain is solubilized with Tris buffer. Optical densities are read on a automated spectrophotometric plate reader at a single wavelength of 490 nm.
(§5) The values for mean+/−SD of data from triplicate wells are calculated.
(§6) Some parameters for cellular responses can be calculated: GI=growth inhibition, TGI=total growth inhibition (cytostatic effect) and LC=cell killing (cytotoxic effect).

IGROV = assay: SRB colorimetric cell growth inhibition assay, IGROV
Protocol: as §1, §2, §3, §4, §5, §6

HELA = assay: SRB colorimetric cell growth inhibition assay, HELA
Protocol: as §1, §2, §3, §4, §5, §6

A549 = assay: SRB colorimetric cell growth inhibition assay, A549
Protocol: as §1, §2, §3, §4, §5, §6

DU145 = assay: SRB colorimetric cell growth inhibition assay, DU145
Protocol: as §1, §2, §3, §4, §5, §6

HELA-APL = assay: SRB colorimetric cell growth inhibition assay, HELA-APL
Protocol: as §1, §2, §3, §4, §5, §6

IGROV-ET = assay: SRB colorimetric cell growth inhibition assay, IGROV-ET
Protocol: as §1, §2, §3, §4, §5, §6

LOVO-DOX = assay: SRB colorimetric cell growth inhibition assay, LOVO-DOX
Protocol: as §1, §2, §3, §4, §5, §6

HT29 = assay: SRB colorimetric cell growth inhibition assay, HT29
Protocol: as §1, §2, §3, §4, §5, §6

LN-caP = assay: SRB colorimetric cell growth inhibition assay, LN-caP
Protocol: as §1, §2, §3, §4, §5, §6

PANC1 = assay: SRB colorimetric cell growth inhibition assay, PANC1
Protocol: as §1, §2, §3, §4, §5, §6

SK-MEL-28 = assay: SRB colorimetric cell growth inhibition assay, SK-MEL-28
Protocol: as §1, §2, §3, §4, §5, §6

LOVO = assay: SRB colorimetric cell growth inhibition assay, LOVO
Protocol: as §1, §2, §3, §4, §5, §6

K562 = assay: SRB colorimetric cell growth inhibition assay, K562
Protocol: as §1, §2, §3, §4, §5, §6

[1] = Homo sapiens, 48 h, read-out: LC50

For `CC(C)C[C@@H]1NC(=O)[C@H](C(C)C)OC(=O)C[C@H](O)[C@@H](C(C)C)NC(=O)[C@@H](NC(=O)[C@@H](CC(C)C)N(C)C(=O)[C@@H]2CCCN2C(=O)[C@H](C)O)[C@@H](C)OC(=O)[C@H](Cc2ccc3ccccc3c2)N(C)C(=O)[C@@H]2CCCN2C1=O` [Compound 93, [2-Naphthylala^5]-Tamandarin B] (H-[Lac]P[dNMeL]T[Hexanoyl(3S-OH,4R-NH2,5-Me)][Hiv]LP[NMe2Nal]; ester 4-C), the GI50 (SK-BR3; Homo sapiens, SK-BR-3, 48 h) was 1.83 nM, the CC50 (SK-BR3; Homo sapiens, SK-BR-3, 48 h, read-out: LC50) was 4.65 µM and the TGI (SK-BR3; SK-BR3 cells, total growth inhibition, SRB, 48 hours exposure) was 1.89E−08 Molar. It also gave a GI50 (IGROV; Homo sapiens, IGROV, 48 h) of 2.09 nM, a CC50 (IGROV; Homo sapiens, IGROV, 48 h, read-out: LC50) of 666 nM and a TGI (IGROV; IGROV cells, total growth inhibition, SRB, 48 hours exposure) of 1.28E−08 Molar. It also gave a TGI (HELA; HELA cells, total growth inhibition, SRB, 48 hours exposure) of 9.79E−09 Molar, a GI50 (HELA; Homo sapiens, HeLa, 48 h) of 2.81 nM and a CC50 (HELA; Homo sapiens, HeLa, 48 h, read-out: LC50) of 54.9 nM. It also gave a TGI (A549; A549 cells, total growth inhibition, SRB, 48 hours exposure) of 4.86E−08 Molar, a GI50 (A549; Homo sapiens, A549, 48 h) of 6.96 nM and a CC50 (A549; Homo sapiens, A549, 48 h, read-out: LC50) of 595 nM. For the same compound, the TGI (DU145; DU145 cells, total growth inhibition, SRB, 48 hours exposure) was 4.39E−09 Molar, the GI50 (DU145; Homo sapiens, DU-145, 48 h) was 2.17 nM and the CC50 (DU145; Homo sapiens, DU-145, 48 h, read-out: LC50) was 8.83 nM. It also gave a TGI (HELA-APL; HELA-APL cells, total growth inhibition, SRB, 48 hours exposure) of 1.68E−07 Molar, a GI50 (HELA-APL; Homo sapiens, 48 h) of 36.4 nM and a CC50 (HELA-APL; [1]) of 2280 nM. It also gave a GI50 (IGROV-ET; Homo sapiens, 48 h) of 159 nM, a CC50 (IGROV-ET; [1]) of 2810 nM and a TGI (IGROV-ET; IGROV-ET cells, total growth inhibition, SRB, 48 hours exposure) of 6.54E−07 Molar. For the same compound, the GI50 (LOVO-DOX; Homo sapiens, 48 h) was 429 nM, the CC50 (LOVO-DOX; [1]) was 9.41 µM and the TGI (LOVO-DOX; LOVO-DOX cells, total growth inhibition, SRB, 48 hours exposure) was 2.33E−06 Molar. It also gave a TGI (HT29; HT29 cells, total growth inhibition, SRB, 48 hours exposure) of 6.98E−08 Molar, a GI50 (HT29; Homo sapiens, HT-29, 48 h) of 4.6 nM and a CC50 (HT29; Homo sapiens, HT-29, 48 h, read-out: LC50) of 5.58 µM. For the same compound, the GI50 (LN-caP; Homo sapiens, LNCaP, 48 h) was 1.98 nM, the CC50 (LN-caP; Homo sapiens, LNCaP, 48 h, read-out: LC50) was 9.7 nM and the TGI (LN-caP; LN-caP cells, total growth inhibition, SRB, 48 hours exposure) was 4.33E−09 Molar. The GI50 (PANC1; Homo sapiens, PANC-1, 48 h) was 6.24 nM, the CC50 (PANC1; Homo sapiens, PANC-1, 48 h, read-out: LC50) was 9.41 µM and the TGI (PANC1; PANC1 cells, total growth inhibition, SRB, 48 hours exposure) was 9.00E−08 Molar. For the same compound, the GI50 (SK-MEL-28; Homo sapiens, SK-MEL-28, 48 h) was 4.14 nM, the CC50 (SK-MEL-28; Homo sapiens, SK-MEL-28, 48 h, read-out: LC50) was 87.9 nM and the TGI (SK-MEL-28; SK-MEL-28 cells, total growth inhibition, SRB, 48 hours exposure) was 1.52E−08 Molar. It also gave a GI50 (LOVO; Homo sapiens, LoVo, 48 h) of 6.84 nM, a CC50 (LOVO; Homo sapiens, LoVo, 48 h, read-out: LC50) of 2490 nM and a TGI (LOVO; LOVO cells, total growth inhibition, SRB, 48 hours exposure) of 4.27E−08 Molar. For the same compound, the GI50 (K562; Homo sapiens, K562, 48 h) was 20 nM, the CC50 (K562; Homo sapiens, K562, 48 h, read-out: LC50) was 198 nM and the TGI (K562; K562 cells, total growth inhibition, SRB, 48 hours exposure) was 4.73E−08 Molar.
